According to US12371454B2, “Cyclic peptide compound having Kras inhibitory action” (priority 2019, dated 2025):
Positions of bridges follow the written chain, without caps; N, C: chain ends. Non-standard residues stand in square brackets, D forms with d. Residues, ends and D or L forms follow the SMILES beside them. *: point of attachment. NMeAbu(3,3-F2-piperidino) = CN[C@@H](CCN1CCCC(F)(F)C1)C(=O)O; hPhe(3-Cl-4-CF3) = N[C@@H](CCc1ccc(C(F)(F)F)c(Cl)c1)C(=O)O; hPhe(4-CF3) = N[C@@H](CCc1ccc(C(F)(F)F)cc1)C(=O)O; NMePhe(3,4-F2) = CN[C@@H](Cc1ccc(F)c(F)c1)C(=O)O; NMePhe(4-Cl) = CN[C@@H](Cc1ccc(Cl)cc1)C(=O)O; NMePhe(3-Me) = CN[C@@H](Cc1cccc(C)c1)C(=O)O; NMePhe(2-F) = CN[C@@H](Cc1ccccc1F)C(=O)O; NMeGly(cPent) = CN[C@H](C(=O)O)C1CCCC1; Pip(4-oxo) = O=C1CCN[C@H](C(=O)O)C1; NMeCha = CN[C@@H](CC1CCCCC1)C(=O)O; NMeChg = CN[C@H](C(=O)O)C1CCCCC1; NMeF = CN[C@@H](Cc1ccccc1)C(=O)O; NMeD = CN[C@@H](CC(=O)O)C(=O)O; NMeL = CN[C@@H](CC(C)C)C(=O)O; NMeV = CN[C@H](C(=O)O)C(C)C; d(β3hA) = C[C@@H](N)CC(=O)O; NMeA = CN[C@@H](C)C(=O)O; Piperidide = C1CCN(*)CC1; Pyrrolidide = C1CCN(*)C1; dNMeA = CN[C@H](C)C(=O)O; Ac5c = NC1(C(=O)O)CCCC1; Aze = O=C(O)[C@@H]1CCN1; βAla = NCCC(=O)O; Sar = CNCC(=O)O

The compounds below were run against T1, Kras and SOS1 (biotin-tagged human Kras loaded with GDP, His-tagged human SOS1) (Homo sapiens, UniProt P01116, G12D) (assay: Protein-protein interaction inhibition between Kras and SOS1 (KrasGl2D-SOS PPI) using AlphaScreen). Details: AlphaScreen; biotin-tagged human Kras loaded with GDP, His-tagged human SOS1; read-out: KRAS G12D-SOS PPI IC50.
T1 construct: made in house; host or cells: E. coli (stated for Kras only)
T1 sequence (P01116 1-188 isoform P01116-2 G12D): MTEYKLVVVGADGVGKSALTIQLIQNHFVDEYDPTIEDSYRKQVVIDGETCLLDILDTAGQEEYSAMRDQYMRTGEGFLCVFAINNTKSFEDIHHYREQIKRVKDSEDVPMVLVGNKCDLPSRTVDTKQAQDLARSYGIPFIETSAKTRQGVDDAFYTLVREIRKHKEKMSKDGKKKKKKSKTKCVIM
Assay type: binding
Summary of the method: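 Energy transfer from nickel-chelate donor beads bound to His-SOS1 to streptavidin acceptor beads bound to biotin-Kras, expressed in E. coli and loaded with GDP after purification, was monitored. Donors were excited at 680 nm; singlet oxygen reaching acceptors gave emission read at 520-620 nm.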
Compound `CC[C@H](C)[C@@H]1NC(=O)[C@H](C)N(C)C(=O)C[C@@H](C)NC(=O)[C@H](C2CCCC2)N(C)C(=O)C2(CCCC2)NC(=O)[C@@H]2CCCN2C(=O)[C@H](CCc2ccc(C(F)(F)F)c(Cl)c2)NC(=O)[C@@H](C)N(C)C(=O)[C@H](Cc2ccc(F)c(F)c2)N(C)C(=O)CN(C)C(=O)CN(C)C1=O` [Compound 1075] (cyclo([Ac5c][NMeGly(cPent)][d(β3hA)][NMeA]I[Sar][Sar][NMePhe(3,4-F2)][dNMeA][hPhe(3-Cl-4-CF3)]P)) has an IC50 of 0.14 µM.
`CC[C@H](C)[C@@H]1NC(=O)[C@H](C)N(C)C(=O)C[C@@H](C)NC(=O)[C@H](C2CCCC2)N(C)C(=O)C2(CCCC2)NC(=O)[C@@H]2CCCN2C(=O)[C@H](CCc2ccc(C(F)(F)F)c(Cl)c2)NC(=O)CN(C)C(=O)[C@H](Cc2ccccc2F)N(C)C(=O)[C@@H]2CCCN2C(=O)CN(C)C1=O` [Compound 1077] (cyclo([Ac5c][NMeGly(cPent)][d(β3hA)][NMeA]I[Sar]P[NMePhe(2-F)][Sar][hPhe(3-Cl-4-CF3)]P)) was tested, and the IC50 was 0.034 µM.
`CC[C@H](C)[C@@H]1NC(=O)[C@H](C)N(C)C(=O)C[C@@H](C)NC(=O)[C@H](C(C)C)N(C)C(=O)[C@H](Cc2ccccc2)N(C)C(=O)[C@H](CC(C)C)N(C)C(=O)[C@H](CCc2ccc(C(F)(F)F)c(Cl)c2)NC(=O)CN(C)C(=O)[C@H](Cc2ccc(Cl)cc2)N(C)C(=O)CN(C)C(=O)CN(C)C1=O` [Compound 1079] (cyclo(I[Sar][Sar][NMePhe(4-Cl)][Sar][hPhe(3-Cl-4-CF3)][NMeL][NMeF][NMeV][d(β3hA)][NMeA])) was tested, and the IC50 was 0.015 µM.
Compound `CC[C@H](C)[C@@H]1NC(=O)[C@H](CC(C)C)N(C)C(=O)C[C@@H](C(=O)N(C)C)N(C)C(=O)[C@H](C2CCCC2)N(C)C(=O)[C@H](C)NC(=O)[C@H](CCN2CCCC(F)(F)C2)N(C)C(=O)[C@H](CCc2ccc(C(F)(F)F)c(Cl)c2)NC(=O)CN(C)C(=O)[C@H](CC2CCCCC2)N(C)C(=O)[C@@H]2CCN2C(=O)[C@H](C)N(C)C1=O` [Compound 1081] ([NMeL]I[NMeA][Aze][NMeCha][Sar][hPhe(3-Cl-4-CF3)][NMeAbu(3,3-F2-piperidino)]A[NMeGly(cPent)][NMeD]-NMe2; lactam N-11) has an IC50 of 0.025 µM.
For `CC[C@H](C)[C@@H]1NC(=O)[C@H](CC(C)C)N(C)C(=O)C[C@@H](C)NC(=O)[C@H](C(C)C)N(C)C(=O)C2(CCCC2)NC(=O)[C@@H]2CCCN2C(=O)[C@H](CCc2ccc(C(F)(F)F)c(Cl)c2)NC(=O)CN(C)C(=O)[C@H](CC2CCCCC2)N(C)C(=O)[C@@H]2CCN2C(=O)[C@@H]2CCCN2C1=O` [Compound 1082] (cyclo([Ac5c][NMeV][d(β3hA)][NMeL]IP[Aze][NMeCha][Sar][hPhe(3-Cl-4-CF3)]P)), the IC50 was 0.27 µM.
`CC[C@H](C)[C@@H]1NC(=O)[C@H](C)N(C)C(=O)C[C@@H](C(=O)N2CCCC2)NC(=O)[C@H](CC(C)C)N(C)C(=O)[C@H](Cc2ccccc2)NC(=O)[C@H](CC(C)C)NC(=O)[C@H](CCc2ccc(C(F)(F)F)cc2)NC(=O)CN(C)C(=O)[C@H](Cc2ccc(Cl)cc2)N(C)C(=O)CN(C)C(=O)CN(C)C1=O` [Compound 1085] ([NMeA]I[Sar][Sar][NMePhe(4-Cl)][Sar][hPhe(4-CF3)]LF[NMeL]D-Pyrrolidide; lactam N-11) showed an IC50 of 0.05 µM.
With `CC[C@H](C)[C@@H]1NC(=O)[C@H](C)N(C)C(=O)CCNC(=O)[C@H](CC(C)C)N(C)C(=O)[C@H](Cc2ccccc2)N(C)C(=O)[C@@H]2CCCN2C(=O)[C@H](CCc2ccc(C(F)(F)F)cc2)NC(=O)CN(C)C(=O)[C@H](Cc2ccc(Cl)cc2)N(C)C(=O)CN(C)C(=O)CN(C)C1=O` [Compound 1086] (cyclo(I[Sar][Sar][NMePhe(4-Cl)][Sar][hPhe(4-CF3)]P[NMeF][NMeL][βAla][NMeA])) the IC50 was 0.18 µM.
Work on `CC[C@H](C)[C@@H]1NC(=O)[C@H](C)N(C)C(=O)C[C@@H](C)NC(=O)[C@H](C2CCCC2)N(C)C(=O)C2(CCCC2)NC(=O)[C@@H]2CCCN2C(=O)[C@H](CCc2ccc(C(F)(F)F)c(Cl)c2)NC(=O)[C@@H](C)N(C)C(=O)[C@H](Cc2cccc(C)c2)N(C)C(=O)CN(C)C(=O)CN(C)C1=O` [Compound 1088] (cyclo([Ac5c][NMeGly(cPent)][d(β3hA)][NMeA]I[Sar][Sar][NMePhe(3-Me)][dNMeA][hPhe(3-Cl-4-CF3)]P)) yielded an IC50 of 0.17 µM.
`CC[C@H](C)[C@@H]1NC(=O)[C@H](CC(C)C)N(C)C(=O)C[C@@H](C(=O)N2CCCCC2)N(C)C(=O)[C@H](C2CCCCC2)N(C)C(=O)C2(CCCC2)NC(=O)[C@@H]2CC(=O)CCN2C(=O)[C@H](CCc2ccc(C(F)(F)F)c(Cl)c2)NC(=O)CN(C)C(=O)[C@H](CC2CCCCC2)N(C)C(=O)CN(C)C(=O)CN(C)C1=O` [Compound 1089] ([NMeL]I[Sar][Sar][NMeCha][Sar][hPhe(3-Cl-4-CF3)][Pip(4-oxo)][Ac5c][NMeChg][NMeD]-Piperidide; lactam N-11) gave an IC50 of 0.0016 µM.
